Reference: patent publication US9957257B2, “Amide compounds as 5-HT4 receptor agonists” (SUVEN LIFE SCIENCES LIMITED, priority 2015, dated 2018)

What was measured:
[1] = Rodent pharmacokinetic study; assay type: in vivo, Male wistar rats; conditions: male, Wistar, plasma, rat
Protocol: Male wistar rats (225±25 grams) were used as experimental animals. Three to five animals were housed in each cage. Two days prior to dosing day, male wistar rats (225-250 grams) were anesthetized with isoflurane for surgical placement of jugular vein catheter. Animals were fasted overnight before oral dosing (p.o) and food pellets were allowed 2 hours post dosing, whereas during intravenous dosing food and water were provided as ad libitum. Three rats were dosed with test compounds (3 mg/kg) orally and intravenously (1 mg/kg).
At each time point blood was collected through jugular vein and immediately replenish with an equivalent volume of normal saline from freely moving rats. Collected blood was transferred into a labeled eppendr off containing 10 μL of heparin as anticoagulant. Typically blood samples were collected as following time points: Pre dose, 0.08 (only i.v.), 0.25, 0.5, 1, 2, 4, 6, 8, and 24 hours post dose-(n=3). Blood was centrifuged at 4000 rpm for 10 minutes. Plasma was prepared and stored frozen at −20° C. until analysis. The concentrations of the test compounds were quantified in plasma by qualified LC-MS/MS method using suitable extraction technique. The test compounds were quantified in the calibration range around 2-2000 ng/mL in plasma. Study samples were analyzed using calibration samples in the batch and quality control samples spread across the batch.
Pharmacokinetic parameters Cmax, Tmax, AUCt, T1/2 and Bioavailability were calculated by non-compartmental model using standard non-compartmental model by using WinNonLin 5.0.1 or Phoenix WinNonlin 6.2 version Software package.

[2] = Rodent brain penetration study; assay type: in vivo, Male Wistar rats; conditions: male, Wistar, rat, 3 mg/kg, oral (gavage), read-out: Single dose Brain Penetration (Cb/Cp)
Protocol: Male Wistar rats (225±25 grams) were used as experimental animals. Three animals were housed in each cage. Animals were given water and food ad libitum throughout the experiment and maintained on a 12 hours light/dark cycle. Brain penetration was determined in discrete manner in rats. One day prior to dosing day, male wistar rats (225-250 grams) were acclimatized. After acclimatization the rats were grouped according to their weight. In each group, 3 animals were kept in individual cage and allowed free access to food and water. At each time point (0.50, 1 and 2 hours) n=3 animals were used. The test compounds were suitably preformulated and administered orally at (free base equivalent) 3 mg/kg. Blood samples were removed via, cardiac puncture by using isoflurane anesthesia. The animals were sacrificed to collect brain tissue. Plasma was separated and brain samples were homogenized and stored frozen at −20° C. until analysis. The concentrations of the test compounds in plasma and brain were determined using LC-MS/MS method. The test compounds were quantified in plasma and brain homogenate by qualified LC-MS/MS method using suitable extraction technique. The test compounds were quantified in the calibration range of 1-500 ng/mL in plasma and brain homogenate. Study samples were analyzed using calibration samples in the batch and quality control samples spread across the batch. Extent of brain-plasma ratio was calculated (Cb/Cp).

[3] = tested on: sAPPα; assay: Estimation of mice brain cortical sAPPα levels (ELISA); assay type: in vivo, Male C57BL/6J mice; conditions: 1 mg/kg, s.c., 60 minutes post treatment
Protocol: 3. The supernatant was discarded and to the precipitate, 4 times volume (0.8 mL/200 mg tissues) of TBS was added.
4. From the above centrifuged mixture the supernatant was discarded and 10 times volume of 6M Guanidine-HCl in 50 mM Tris buffer pH: 7.6 (500 μL/50 mg tissues) was added.
5. […] From this 5 μL of supernatant solution was taken and diluted with 155 μL of EIA buffer (dilution factor 32).
The entire procedure was followed as described in the ELISA kit manual (Mouse/Rat sAPPα ELISA, Catalog Number: JP27415, Innovation Beyond Limits International, Hamburg, Germany).
Statistical analyses were performed using the Graph Pad Prism (Version 4).

[4] = Radial arm maze; assay type: in vivo, rats; conditions: p.o.
Text: The cognition enhancing properties of test compounds of this invention were estimated by using this model.
Radial arm maze consists of a central hub of 45 cm diameter. Each arm was of dimension 42.5×15×24 cm. The maze was elevated to a height of 1 m above the ground. The animals were placed on a restricted diet until they reached approximately 85% of their free feeding weight. During this diet restriction period animals were habituated to the novel feed (pellets). Once the rats reached approximately 85% of their free feeding weight, rats were habituated to the maze on the 1st and 2nd day. […] Animals were randomized on day 2. On the subsequent days the treatment was given as per the allotment. Each animal was introduced into the maze individually for a period of 10 minutes. The arms were baited only once and the animal had to learn the rule that repeated arm entries would not be rewarded. The trial ended once the rat had visited 16 arms or 10 minutes were over or all the pellets were eaten. The arm entries were recorded using the software. Once the trial was over the rat was removed and the maze was cleaned using soap water.

[5] = target: T1, hERG (Homo sapiens, UniProt Q12809); assay: Automated hERG patch clamp assay; assay type: cell-based; conditions: hERG-HEK293 cells, whole cell patch clamp
T1 construct: expressed in transfected cells; host or cells: HEK293 (hERG-HEK293)
Protocol: To study the cardiac safety of test compounds using automated hERG patch clamp assay, hERG-HEK293 cells were grown to 70% confluency and were harvested using accumax. The cells were then suspended in complete media and were incubated at 37° C. and 5% CO2 for 30 minutes before using these cells for the whole cell patch clamp assay. Whole cell patch clamp recordings were conducted on Nanion's Patchliner using I-V protocol of voltage step from holding potential of −80 mV to +40 mV for 500 ms and then to test potential for 500 ms and back to holding potential of −80 mV. Pulses were elicited every 10 seconds. Each test compound concentration was incubated for 5 minutes. Data analysis was done by plotting the raw data using Igor Pro software and IC50 values were calculated. Cells with resistance >1 Gohms and tail currents of >200 pA were taken into consideration for data analysis. Quinidine was used as positive control.

T1 sequence (Q12809 whole entry): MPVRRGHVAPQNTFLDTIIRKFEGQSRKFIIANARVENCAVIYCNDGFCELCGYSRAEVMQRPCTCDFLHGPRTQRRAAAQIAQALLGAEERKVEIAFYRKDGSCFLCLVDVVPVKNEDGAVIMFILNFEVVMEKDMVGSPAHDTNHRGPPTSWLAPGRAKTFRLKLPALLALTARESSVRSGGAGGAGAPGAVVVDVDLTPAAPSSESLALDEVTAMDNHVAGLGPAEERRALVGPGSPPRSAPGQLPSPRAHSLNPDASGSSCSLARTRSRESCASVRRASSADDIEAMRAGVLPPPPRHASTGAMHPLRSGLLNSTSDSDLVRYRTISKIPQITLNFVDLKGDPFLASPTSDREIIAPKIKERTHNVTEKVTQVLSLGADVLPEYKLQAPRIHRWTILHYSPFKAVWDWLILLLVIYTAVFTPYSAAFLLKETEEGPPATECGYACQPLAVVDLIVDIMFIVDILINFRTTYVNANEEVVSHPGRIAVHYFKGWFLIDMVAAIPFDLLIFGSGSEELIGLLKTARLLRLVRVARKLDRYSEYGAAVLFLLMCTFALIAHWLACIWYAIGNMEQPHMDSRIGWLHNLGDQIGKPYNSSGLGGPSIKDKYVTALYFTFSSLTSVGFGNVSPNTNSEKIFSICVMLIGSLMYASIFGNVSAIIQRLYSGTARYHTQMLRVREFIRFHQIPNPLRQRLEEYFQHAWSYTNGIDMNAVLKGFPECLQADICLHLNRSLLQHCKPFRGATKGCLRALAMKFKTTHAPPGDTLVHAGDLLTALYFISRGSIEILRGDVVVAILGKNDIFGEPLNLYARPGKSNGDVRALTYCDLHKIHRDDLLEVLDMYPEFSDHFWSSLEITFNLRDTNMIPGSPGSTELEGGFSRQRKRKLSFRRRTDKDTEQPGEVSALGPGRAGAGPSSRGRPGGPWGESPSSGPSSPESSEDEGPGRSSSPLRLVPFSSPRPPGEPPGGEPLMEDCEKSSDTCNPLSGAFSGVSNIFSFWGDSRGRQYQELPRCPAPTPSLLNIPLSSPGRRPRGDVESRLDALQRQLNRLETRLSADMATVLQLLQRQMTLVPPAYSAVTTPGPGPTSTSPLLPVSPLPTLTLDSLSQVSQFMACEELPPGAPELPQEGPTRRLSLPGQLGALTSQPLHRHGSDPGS

CC(C)(O)CN1CCC(F)(CNC(=O)c2cc(Cl)c(N)c3ccoc23)CC1 [Example 50, 4-Amino-5-chloro-N-{[4-fluoro-1-(2-hydroxy-2-methylpropyl)-4-piperidinyl]methyl}benzofuran-7-carboxamide L(+)-tartarate]
AUC(0-t) ([1]; 1 mg/kg, intravenous (bolus)): 182 ± 37 ng·h/mL
half-life ([1]; 1 mg/kg, intravenous (bolus)): 1.2 h
bioavailability ([1]; 3 mg/kg oral vs 1 mg/kg intravenous): 63 ± 13%
AUC(0-t) ([1]; 3 mg/kg, oral (gavage)): 346 ± 71 ng·h/mL
Cmax ([1]; 3 mg/kg, oral (gavage)): 230 ± 56 ng/mL
Tmax ([1]; 3 mg/kg, oral (gavage)): 0.25 h
half-life ([1]; 3 mg/kg, oral (gavage)): 1.5 h
Kp [2]: 1.48 ± 0.26
increase in mice brain cortical sAPPα levels [3]: 44%
Reversal of Scopolamine Induced amnesia - Effective dose range [4]: 1 mg/kg, p.o.
IC50 [5]: > 10 µM
